The values below are quoted from earlier work in US20230143212A1 (Navinta, LLC, priority 2021, published 2023).

Several values for one entry are separate records, joined by “and”; a condition that tells them apart may be missing. Identical values can stand only once. Like-named read-outs stand apart in the source and are kept apart here.

The conditions of data set [1]: ethyl alcohol, DMSO, propylene glycol, polyethylene glycol, glycerol, dimethylformamide.
The conditions of data set [2]: for solubility in propylene glycol/water: 25° C.
For data set [3] the following is noted: orally administered.
The conditions of data set [4]: rabbits; composition in polyethylene glycol-300 with and without bile salt.

In the case of `COc1ccc2[nH]cc(CCNC(C)=O)c2c1` [Melatonin, N-[2-(5-Methoxy-1H-indol-3-yl)ethyl] acetamide], in data set [1], the “solubility in organic solvents” value is listed as “soluble”. In data set [2] (60% v/v propylene glycol), the “solubility in propylene glycol/water” value was “about 250 mM and 60 mg/ml”. Besides, the “solubility in propylene glycol/water” value in data set [2] (until reaching 40% v/v propylene glycol) was “up to 50 mM and ~ 12 mg/ml”. In addition, in data set [2] (water), the “pH dependence of solubility in water” value was “pH-independent solubility”. For the same compound, in data set [3], the “Plasma T½” value is ~ 50 minutes, the oral absorption entry is “almost completely absorbed” and the oral bioavailability was ~ 15%. The “bioavailability via intranasal route” value in data set [4] is reported as “increased substantially”.
